Measured values taken from PubChem BioAssay AID1508610 (The Scripps Research Institute Molecular Screening Center, 2020).
Calls of active or inactive are those of the source. The rule behind the calls is not given here.

Target: G-protein coupled receptor 151 (Homo sapiens) (UniProt Q8TDV0)
Test: GPR151 activator potency, dose response, cell-based (AID 1508610)
Conditions: cell-based GPR151 activation reporter

G-protein coupled receptor 151 (Homo sapiens), sequence (Q8TDV0 whole entry, looked up): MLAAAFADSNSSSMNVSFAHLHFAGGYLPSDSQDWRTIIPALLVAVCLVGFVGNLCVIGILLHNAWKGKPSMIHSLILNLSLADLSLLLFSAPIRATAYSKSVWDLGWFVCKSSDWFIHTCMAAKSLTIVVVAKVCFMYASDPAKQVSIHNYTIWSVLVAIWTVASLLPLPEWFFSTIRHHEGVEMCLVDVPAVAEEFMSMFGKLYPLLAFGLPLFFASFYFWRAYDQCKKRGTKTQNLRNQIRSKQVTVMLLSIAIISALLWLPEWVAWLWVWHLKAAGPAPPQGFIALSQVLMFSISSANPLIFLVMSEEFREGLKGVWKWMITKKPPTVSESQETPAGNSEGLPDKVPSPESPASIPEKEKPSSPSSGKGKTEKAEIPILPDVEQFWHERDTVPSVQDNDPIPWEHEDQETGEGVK

Compound	EC50
Cc1cc2c(cc1C)C(c1cc([N+](=O)[O-])ccc1Cl)CC(=O)N2 (stereo not given)	> 33.6 µM (inactive)
Cc1ccc2nc(-c3ccccc3)[nH]c2c1	> 38.4 µM (inactive)
COc1ccccc1C1c2c(oc3ccc(C)cc3c2=O)C(=O)N1CCN1CCOCC1 (stereo not given)	0.00152 µM
Cc1ccc2c(c1)CN(CCC(=O)NCCCn1nnc3ccccc31)CC(C)O2 (stereo not given)	> 28 µM (inactive)
COc1ccc(/C=C/C(=O)Nc2ccccc2C(=O)O)cc1OC	> 28 µM (inactive)
COc1ccc(CCNc2ccnc(Nc3ccc(N4CCOCC4)cc3)n2)cc1	inactive
Cc1ccc(CNC(=O)c2c(C)cc(=O)oc2C)cc1	> 28 µM (inactive)
Cc1nn(-c2ccc(Nc3ccc(NC(=O)c4cccc(F)c4)cc3)nn2)c(C)c1C	inactive
O=c1oc2ccccc2cc1-c1cn2ccccc2n1	> 34.7 µM (inactive)
CCN(CC)C(=O)C(=O)c1c(C)n(C)c2ccccc12	> 28 µM (inactive)
COc1cc(C2CC(=O)Nc3cc(C)c(C)cc32)cc(OC)c1OC (stereo not given)	> 26.6 µM (inactive)
CC(C)N1CCN(Cc2ccc(OC3CCCC3)cc2)CC1CCO (stereo not given)	0.00143 µM
O=C(Nc1noc2ccccc12)c1ccc(F)cc1	> 28 µM (inactive)
CCCCCCCC(=O)N/N=C/c1ccccc1OC	> 28 µM (inactive)
COc1cc(OC)cc(C(=O)NC2CCCCCCC2)c1	> 39.8 µM (inactive)
O=C1N(CN2CCC3(CC2)OCCO3)c2ccccc2C12OCCCO2	> 28 µM (inactive)
COc1ccc(C(=O)Nc2ccc(-n3nncc3C(C)(C)C)cc2)cc1	> 31.7 µM (inactive)
Cc1ccn(CCC(=O)NCC2Cc3cc(-c4cnccn4)cc(Cl)c3O2)n1 (stereo not given)	> 28 µM (inactive)
Cc1ccc(C(=O)Nc2ccc([N+](=O)[O-])cc2)c(Cl)c1	> 28 µM (inactive)
CCOC(=O)C1CCC(CN(CC(C)C)S(=O)(=O)c2ccc([N+](=O)[O-])cc2)CC1 (stereo not given)	> 23.7 µM (inactive)
O=C(NC1(C(F)(F)F)NC(=O)N(c2ccc(F)cc2)C1=O)c1ccncc1 (stereo not given)	> 28 µM (inactive)
Cc1ccc(C(=O)Nc2cccc(C(=O)O)c2)cc1	> 32.6 µM (inactive)
CCN1/C(=C/c2ccc3cc(C)ccc3[n+]2CC)Sc2ccc(-c3ccccc3)cc21	inactive
CC(C)CC(C(=O)Nc1cccc([N+](=O)[O-])c1)N1C(=O)c2ccccc2C1=O (stereo not given)	> 28 µM (inactive)
COc1ccc(-c2csc(/C(C#N)=C/Nc3ccc(F)c([N+](=O)[O-])c3)n2)cc1OC	> 27.6 µM (inactive)

Compound	EC50
CC(=O)Oc1ccccc1N1C(=O)c2cccc([N+](=O)[O-])c2C1=O	> 35.6 µM (inactive)
O=C1CS/C(=C\c2nc3ccccc3s2)N1	> 31.6 µM (inactive)
O=C(Nc1ccc(Br)cc1)c1ccc(Br)c(S(=O)(=O)N2CCCCC2)c1	> 20.9 µM (inactive)
Cn1c(=O)[nH]c(=O)c2c1nc(N1CCN(c3cccc(Cl)c3)CC1)n2Cc1ccccc1	> 22.4 µM (inactive)
O=C(O)CCn1cc(C=C2C(=O)NC(=O)NC2=O)c(-c2ccc(Br)cc2)n1	> 28 µM (inactive)
Cc1cc(N2CCCCC2)nc2ccc(NC(=O)c3cccc([N+](=O)[O-])c3)cc12	> 29.2 µM (inactive)
O=C(Nc1nc2c(s1)CCCC2)C1=COCCO1	> 27.4 µM (inactive)
COC(=O)c1ccc(Cl)cc1NC(=O)N(C(C)C)C1CCN(C(C)=O)CC1	> 28 µM (inactive)
Cc1cc2nc(-c3cccnc3Cl)[nH]c2cc1C	> 26.1 µM (inactive)
CC[n+]1c(/C=C2\Sc3ccc(C)cc3N2CCO)ccc2ccccc21	inactive
CC(c1ccccc1)C1CC(=O)N(Cc2ccccc2)C1=O (stereo not given)	> 32.4 µM (inactive)
COc1cccc(NC(=O)c2oc3ccc4c(c3c2C)C(=O)CC(C)(C)O4)c1	> 28 µM (inactive)
COc1ccc(N2C(=O)NC3CC2(C)Oc2c(OC)cccc23)c(OC)c1 (stereo not given)	> 28.7 µM (inactive)
Cc1ccc(C(=O)Nc2nc(Cl)c(C#N)s2)cc1	> 28.2 µM (inactive)
O=C(COC(=O)CCS(=O)(=O)c1ccccc1Cl)NC(=O)NCc1ccco1	> 28.7 µM (inactive)
C=CCn1c(C)cc(C2=NNC(=NCC)SC2)c1C	> 28.7 µM (inactive)
COc1cccc2oc(-c3ccccc3)cc(=O)c12	> 28 µM (inactive)
CC(C)C[C@@H]1NC(=O)[C@@H]2C[C@H](NC(=O)Nc3cccc(C(F)(F)F)c3)CN2C1=O	> 28 µM (inactive)
CCOC(=O)c1c(NC(=O)C(C)C)sc(C(C)=O)c1C	inactive
CC(=O)Nc1ccc(Nc2ccnc(N3CCc4ccccc4C3)n2)cc1	inactive
CN1CCN(C(=O)c2ccc(-c3nc4ccc(C(=O)NCCOc5ccccc5)cc4s3)cc2)CC1	> 28.1 µM (inactive)
COC(=O)c1cccc(NC(=O)c2cccc(Br)c2)c1C	> 28 µM (inactive)
CC(C)c1ccc(Cn2ccc3c4c(N)nc(NC5CC5)nc4ccc32)cc1	3.86 µM
CC1CCCCN1Cc1nc2c(c(=O)n(C)c(=O)n2C)n1CC(N)=O (stereo not given)	> 28 µM (inactive)
O=C1NC(c2ccc(Cl)cc2Cl)Oc2ccccc21 (stereo not given)	> 28 µM (inactive)

Compound	EC50
CN(C)CCN(C)C(=O)c1cccc(OC2CCN(C3CCSCC3)CC2)c1	> 28 µM (inactive)
CCOc1ccc(-c2n[nH]c(=S)n2-c2ccccc2)cc1	inactive
O=C(/C=C/c1ccc(O)cc1)c1ccc(O)cc1O	> 28 µM (inactive)
COc1ccc(CCNc2ncnc3c2oc2ccccc23)cc1OC	> 27.6 µM (inactive)
COc1ccc(OC)c(C(C)NC(=O)c2ccccc2Cl)c1 (stereo not given)	> 28 µM (inactive)
N#Cc1cccc(C(=O)NC2CCCC2)c1	> 31.4 µM (inactive)
CC(C)N1CCC(=NNC(=O)c2ccc(C(C)(C)C)cc2)CC1	> 28 µM (inactive)
O=C(Nc1nc2ccccc2[nH]1)c1ccc(Cl)cc1Cl	> 29.3 µM (inactive)
CN(C)c1cccc2c(S(=O)(=O)Nc3nccnc3-c3ccc(C=O)cc3)cccc12	> 28 µM (inactive)
CC(C(=O)O)c1ccc(C(=O)c2ccccc2)s1 (stereo not given)	> 28 µM (inactive)
CCNc1nc(OC(C(F)(F)F)C(F)(F)F)nc(N2CCCCC2)n1	> 28 µM (inactive)
O=C1CC(C(=O)N2CCCC(c3[nH]ncc3-c3ccccc3)C2)c2ccccc21 (stereo not given)	> 28 µM (inactive)
Cc1nc2nc(SCC(=O)N3CCOCC3)nn2c(C)c1Cc1ccccc1	> 28 µM (inactive)
COc1ncc(-c2cncc(-c3cccc(O)c3)n2)c(OC)n1	> 28 µM (inactive)
O=Cc1cccc(OCc2ccc(C(=O)O)cc2)c1	> 28 µM (inactive)
O=C(Nc1ncc([N+](=O)[O-])s1)c1cccs1	> 28 µM (inactive)
CN(C)/C=C1/C(=O)N(c2nc3ccccc3s2)N=C1C(F)(F)F	> 38.5 µM (inactive)
CCC(C)OC(=O)C1=C(C)NC2=C(C(=O)CC(c3ccc(OC)cc3)C2)C1c1cc(OC)c(OC)cc1Br (stereo not given)	> 22.4 µM (inactive)
CC[C@@H](C(=O)C(C)[C@@H](O)[C@H](C)CCc1ccc(C)c(O)c1C(=O)O)C1OC(CC)(C2CC[C@](O)(CC)[C@H](C)O2)C[C@@H]1C (stereo not given in full)	inactive
CC[n+]1cc(C)ccc1/C=C/c1ccc(N(C)C)cc1	> 29.7 µM (inactive)
Cc1ccc(-c2csc3nnc(SCC(=O)NC(N)=O)n23)cc1	> 29 µM (inactive)
COc1cc(C2NC(=O)NC(C)=C2C(C)=O)cc(Br)c1OCc1ccccc1 (stereo not given)	> 28 µM (inactive)
O=C(O)c1ccc(-c2nc3ccccc3s2)s1	> 30 µM (inactive)
CCN(CC)S(=O)(=O)c1ccc(-c2csc(=Nc3ccccc3OC)n2CC)cc1	> 17.3 µM (inactive)
COc1ccc(/C=N/NC(=O)COc2cccc(C)c2)cc1O	> 28 µM (inactive)

Compound	EC50
CCC(C)C1N=C2c3ccccc3N=C(SCC(=O)N3CC(C)CC(C)C3)N2C1=O (stereo not given)	> 29.4 µM (inactive)
C=CCOC(=O)CCN1C(=O)c2ccccc2C1=O	> 28 µM (inactive)
Cc1cc(C)c(C#N)c(Oc2cccc(N)c2)n1	> 28 µM (inactive)
O=C(Nc1nc(-c2cc3ccccc3o2)cs1)c1cc2ccccc2oc1=O	> 24.7 µM (inactive)
Cc1ccc(-n2nc3c(c2NC(=O)c2cccc(F)c2)CS(=O)C3)c(C)c1 (stereo not given)	> 27.8 µM (inactive)
COc1cc(OC)cc(C(=O)Nc2ccc3c(c2)OCO3)c1	> 31.5 µM (inactive)
CCCCCCCCCCCCCC/C(C(=O)O)=C(\C)C(=O)O	> 28 µM (inactive)
COc1ccc(-c2nc(-c3ccccn3)no2)cc1	> 35.9 µM (inactive)
Cc1nc2c(C(=O)NCc3ccccn3)cnn2c(C)c1Cc1cccc(Cl)c1	> 29.5 µM (inactive)
O=c1oc2cc(O)ccc2cc1-c1ccc(Cl)cc1	> 28.8 µM (inactive)
CC[C@@H]1NC(=O)[C@H]2CN(C(=O)c3cccc(Cl)c3)CCN2C1=O	> 28 µM (inactive)
COc1ccc(-c2nc(C(=O)N3CCN(C)CC3)sc2-c2ccc(OC)cc2)cc1	> 11.2 µM (inactive)
Cc1ccc(N(CC(=O)NCCC2=CCCCC2)S(C)(=O)=O)cc1Cl	> 28 µM (inactive)
CCOC(=O)c1c(NC(=O)C(C)Sc2cn(C)c3ccccc23)sc2c1CCCCC2 (stereo not given)	inactive
Cn1c(=O)c2c(nc(NCCO)n2Cc2ccccc2F)n(C)c1=O	> 34.4 µM (inactive)
O=c1c2ccccc2cnn1-c1nc2ccccc2[nH]1	> 29.9 µM (inactive)
COc1ccccc1OCC(=O)Nc1ccc(S(=O)(=O)NC(C)=O)cc1	> 28 µM (inactive)
O=C(O)c1ccc(OCc2ccnc(Cl)c2)cc1	> 28 µM (inactive)
c1ccc(-c2ccc(-c3nc(-c4ccccn4)no3)cc2)cc1	> 24.8 µM (inactive)
CCOc1cc(OCC)cc(C(=O)Nc2ccc(Br)cn2)c1	> 28 µM (inactive)
COc1ccc(/C=C2/NC(=O)N(c3cccc(Cl)c3)C2=O)c(OC)c1	> 28 µM (inactive)
COc1ccccc1N1CCN(C(=O)c2cnc(N3CCN(c4ncccn4)CC3)c3ccccc23)CC1	> 20.1 µM (inactive)
CC(C)NC(=O)CSc1nnc(-c2cccnc2)n1CCc1ccccc1	> 28 µM (inactive)
CC1CCCC(NCc2c(C(=O)O)n(Cc3ccccc3F)c3ccccc23)C1C (stereo not given)	> 28 µM (inactive)
Fc1ccc(CSc2ncn[nH]2)cc1	> 50.7 µM (inactive)
